Assay results reported in US5700679A, “Lipid vesicles having a bilayer containing a surfactant with anti-viral and spermicidal activity” (priority 1996, dated 1997).

Assays:
[1] = tested on: spermatozoa (human semen); assay: Sander-Cramer Spermicidal Assay; format: cell-based; settings: highest dilution that immobilizes spermatozoa in less than 20 seconds; NP9 concentration 10 mg/mL in DMSO
Method: In this Example, the preparation of Example 1 was tested for spermicidal activity using the Sander-Cramer spermicidal assay. A series of dilutions of the test compound are prepared using 0.9% saline. 1 mL of test article is mixed with 0.2 mL of human semen in a […] by drawing the mixture into a pipet and forcibly expressing the mixture. This procedure is repeated 6 times. A hanging drop of the mixture is prepared and five fields are observed under low power magnification. The whole process from mixing to microscopic observation must be accomplished in less than 20 seconds. The end point is the highest dilution that immobilizes spermatozoa in less than 20 seconds.

[2] = tested on: spermatozoa; settings: cited from earlier work

Substance	Highest Spermicidal Dilution [1]	spermicidal properties (in words) [2]
poly(ethylene glycol) p-nonylphenyl ether [NP9 Control]	91	–
polyethylene glycol p-isooctylphenyl ether [TRITON-X]	–	some spermicidal properties
